Experimental data published in US7973036B2, “2-methyl-5-imino-benzo[D][1 ,3]oxazin[5-B]pyrazole compound, preparation and use thereof” (Qingdao Huanghai Pharmaceutical Co., Ltd, priority 2008, dated 2011).
Entries after “also recorded” stand apart in the source; their conditions may differ. Values belong to the compound of their own block, whether it stands above or below them.

Experiments:
[1] = Anti-DPPH free radical test (spectrophotometry at 517 nm); type: biochemical; conditions: for DPPH free radical scavenging ability with the reaction time / Hydrolysis in the reaction liquid with the reaction time: 30-150 min; for Hydrolysis in the reaction liquid with the reaction time: 95% ethanol, pH 7.5, room temperature; for DPPH free radical scavenging ability E, one value per sample (mean of the five concentrations) / DPPH free radical scavenging ability V / DPPH free radical scavenging ability E / DPPH free radical scavenged by one molecular of compound / DPPH free radical scavenging ability, comparison between samples: 30 min
From the text: Anti-DPPH Free Radical Test
2,2-diphenyl-1-picrylhydrazyl (DPPH) free radical spectrophotometry is a simple method for screening antioxidants, the principle of which is using the characteristic absorption peak of DPPH solution at 517 nm. When free radical scavengers existed, single electron pairing between free radical scavenger and DPPH allowed the absorption of DPPH disappeared, and its decoloring degree and accepted electron number present as quantitative relation, and the antioxidant activity of samples can be evaluated through the amount of cleared DPPH, so the spectrophotometry can be used for quantitative analysis.
DPPH was accurately weighed and placed in a volumetric flask, and diluted to 100 ml with 95% ethanol. The absorbance (A) of DPPH was measured at 517 nm.
DPPH standard curve was shown in FIG. 1, the linear equation of which was as follows: y=0.219x−0.0285; r=0.9994.
DPPH was accurately weighed and placed in a 100 ml volumetric flask, and diluted to 100 ml with 95% ethanol to produce the DPPH solution.
Preparation of Test Drug Solution: the Test Drug was Accurately Weighed and Placed in a 100 ml volumetric flask, dissolved with 20 ml of 95% ethanol, adjusted to pH 7.5 and diluted to 100 ml with 95% ethanol.
5.0 ml of DPPH solution and 2.0 ml test drug solution were taken and placed in a 10 ml volumetric flask, fully shaken at room temperature for a certain time followed by determination of absorption value (A) at 517 nm.
Formula for calculating DPPH free radical scavenging ability of test drug, E (mgDPPH/mg):
Formula for calculating DPPH free radical scavenging ability of test drug, V (mmolDPPH/mmol): […]

[2] = system: cerebral ischemia reperfusion model of middle cerebral artery occlusion (MCAO); assay: Cerebral ischemia reperfusion model of middle cerebral artery occlusion (MCAO), suture method; type: in vivo, SD rats; conditions: for Variation value of water content in brain (%) / brain tissue MDA content / brain tissue SOD activity / Scores of neurological defect symptoms / Cerebral infarction area (%) / Cerebral infarction area (%) (table title: brain injury): X ± SD; for Cerebral infarction area (%): Table 5; for Cerebral infarction area (%) (table title: brain injury): Table 6, brain injury
Description: Cerebral ischemia reperfusion model of middle cerebral artery occlusion (MCAO) was established in SD rats using the suture method of internal carotid artery. Test rats were administrated once 0.5 hours after ischemia reperfusion, then once every 2 hours, for totally three times. Neurological defect symptoms were observed 48 hours after cerebral ischemia.

[3] = test drug C 0.152 (Edaravone), 0.153 (Compound 1, 2), 0.159 (Compound 3) mg/100 ml
[4] = test drug C 0.304 (Edaravone), 0.305 (Compound 1, 2), 0.318 (Compound 3) mg/100 ml
[5] = test drug C 0.608 (Edaravone), 0.610 (Compound 1, 2), 0.635 (Compound 3) mg/100 ml
[6] = test drug C 1.215 (Edaravone), 1.220 (Compound 1, 2), 1.270 (Compound 3) mg/100 ml
[7] = test drug C 2.430 (Edaravone), 2.440 (Compound 1, 2), 2.540 (Compound 3) mg/100 ml
[8] = TR high dose group (6.0 mg/kg), P<0.001
[9] = TR 1.5 mg/kg, three administrations, n=7
[10] = TR 3.0 mg/kg, three administrations, n=8
[11] = TR 6.0 mg/kg, three administrations, n=8
[12] = Nimodipine 0.4 mg/kg, three administrations, n=10

Hydrolysis in the reaction liquid with the reaction time [1]: gradually hydrolyzed into Compound 3
Compound: Cc1cc2oc(=N)c3ccccc3n2n1 [TR, 2-methyl-5-imino-benzo[d][1,3]oxazin[5-b]pyrazole]
DPPH free radical scavenging ability with the reaction time [1]: gradually increased
DPPH free radical scavenging ability E, one value per sample (mean of the five concentrations) [1]: 0.419 mgDPPH/mg
DPPH free radical scavenging ability V [1]: 0.212 mmolDPPH/mmol
DPPH free radical scavenging ability E [1, 3]: 0.409 mgDPPH/mg
DPPH free radical scavenging ability E [1, 4]: 0.368 mgDPPH/mg
DPPH free radical scavenging ability E [1, 5]: 0.310 mgDPPH/mg
DPPH free radical scavenging ability E [1, 6]: 0.561 mgDPPH/mg
DPPH free radical scavenging ability E [1, 7]: 0.445 mgDPPH/mg
Variation value of water content in brain (%) ([2]; TR 1.5 mg/kg, n=7): 2.1 ± 1.08 %
brain tissue MDA content ([2]; TR 1.5 mg/kg, n=7): 6.6 ± 1.30 nmol/mgprot
brain tissue SOD activity ([2]; TR 1.5 mg/kg, n=7): 107.1 ± 15.5 U/mgprot
Variation value of water content in brain (%) ([2]; TR 3.0 mg/kg, n=8): 2.0 ± 1.01 %
brain tissue MDA content ([2]; TR 3.0 mg/kg, n=8): 6.5 ± 0.81 nmol/mgprot
brain tissue SOD activity ([2]; TR 3.0 mg/kg, n=8): 121.6 ± 16.8 U/mgprot
Variation value of water content in brain (%) ([2]; TR 6.0 mg/kg, n=9): 1.2 ± 0.55 %
brain tissue MDA content ([2]; TR 6.0 mg/kg, n=9): 5.0 ± 1.10 nmol/mgprot
brain tissue SOD activity ([2]; TR 6.0 mg/kg, n=9): 132.7 ± 21.0 U/mgprot
MDA content compared with the model group [2, 8]: significantly decreased
brain injury compared with the model group [2, 8]: significantly reduced
cerebral infarction area compared with the model group [2, 8]: significantly reduced
water content in brain compared with the model group [2, 8]: significantly reduced
SOD activity compared with the model group ([2]; TR high dose group (6.0 mg/kg), P=0.007): significantly increased
cerebral infarction area compared with the model group ([2]; TR low dose group (1.5 mg/kg), P=0.044): significantly reduced
water content in brain compared with the model group ([2]; TR low dose group (1.5 mg/kg), P=0.086): No obvious difference
MDA content compared with the model group ([2]; TR low dose group (1.5 mg/kg), P=0.211): No obvious difference
SOD activity compared with the model group ([2]; TR low dose group (1.5 mg/kg), P=0.826): No obvious difference
cerebral infarction area compared with the model group ([2]; TR medium dose group (3.0 mg/kg), P<0.001): significantly reduced
brain injury compared with the model group ([2]; TR medium dose group (3.0 mg/kg), P=0.001): significantly reduced
water content in brain compared with the model group ([2]; TR medium dose group (3.0 mg/kg), P=0.039): significantly reduced
MDA content compared with the model group ([2]; TR medium dose group (3.0 mg/kg), P=0.141): No obvious difference
SOD activity compared with the model group ([2]; TR medium dose group (3.0 mg/kg), P=0.157): No obvious difference
Scores of neurological defect symptoms ([2]; Table 4 series, TR 1.5 mg/kg, three administrations, 48 hours after cerebral ischemia, n=7): 1.6 ± 0.75
Scores of neurological defect symptoms ([2]; Table 4 series, TR 3.0 mg/kg, three administrations, 48 hours after cerebral ischemia, n=8): 1.1 ± 0.44
Scores of neurological defect symptoms ([2]; Table 4 series, TR 6.0 mg/kg, three administrations, 48 hours after cerebral ischemia, n=8): 1.0 ± 0.46
neurological defect symptoms compared with the model group ([2]; Table 4 series, TR high dose group (6.0 mg/kg), P<0.001): significantly reduced
neurological defect symptoms compared with the model group ([2]; Table 4 series, TR low dose group (1.5 mg/kg), P=0.001): significantly reduced
neurological defect symptoms compared with the model group ([2]; Table 4 series, TR medium dose group (3.0 mg/kg), P<0.001): significantly reduced
Cerebral infarction area (%) [2, 9]: 26.5 ± 13.24 %
Cerebral infarction area (%) [2, 10]: 17.4 ± 10.05 %
Cerebral infarction area (%) [2, 11]: 6.7 ± 6.30^#& %
Cerebral infarction area (%) (table title: brain injury) [2, 9]: 33.6 ± 16.08 %
Cerebral infarction area (%) (table title: brain injury) [2, 10]: 22.7 ± 12.10 %
Cerebral infarction area (%) (table title: brain injury) [2, 11]: 8.1 ± 5.68^#& %
Scores of neurological defect symptoms ([2]; Table 7 series, TR 1.5 mg/kg, n=7): 1.9 ± 0.84
Scores of neurological defect symptoms ([2]; Table 7 series, TR 3.0 mg/kg, n=8): 1.8 ± 0.70
Scores of neurological defect symptoms ([2]; Table 7 series, TR 6.0 mg/kg, n=9): 1.0 ± 0.58
neurological defect symptoms compared with the model group ([2]; Table 7 series, TR high dose group (6.0 mg/kg), P<0.001): significantly relieved
neurological defect symptoms compared with the model group ([2]; Table 7 series, TR low dose group (1.5 mg/kg), P=0.001): significantly relieved
neurological defect symptoms compared with the model group ([2]; Table 7 series, TR medium dose group (3.0 mg/kg), P<0.001): significantly relieved
onset dose ([2]; improvement of neurological defect symptoms, infarction area, brain injury, brain edema, lipid peroxidation in cerebral ischemia-reperfusion animals): 3 mg/kg

Compound: CC1=NN(c2ccccc2)C(=O)C1 [Edaravone, edaravone, reference compound]
DPPH free radical scavenged by one molecular of compound [1]: 1.657 molecular of DPPH free radical
DPPH free radical scavenging ability E, one value per sample (mean of the five concentrations) [1]: 3.752 mgDPPH/mg
DPPH free radical scavenging ability V [1]: 1.657 mmolDPPH/mmol
DPPH free radical scavenging ability E [1, 3]: 3.222 mgDPPH/mg
DPPH free radical scavenging ability E [1, 4]: 3.195 mgDPPH/mg
DPPH free radical scavenging ability E [1, 5]: 3.322 mgDPPH/mg
DPPH free radical scavenging ability E [1, 6]: 4.785 mgDPPH/mg
DPPH free radical scavenging ability E [1, 7]: 4.237 mgDPPH/mg

Hydrolysis in the reaction liquid with the reaction time [1]: gradually hydrolyzed into Compound 3
Compound: 2-methyl-benzo[d][1,3]oxazin[5-b]pyrazole-5-one [Compound 1]
DPPH free radical scavenging ability with the reaction time [1]: gradually increased
DPPH free radical scavenging ability E, one value per sample (mean of the five concentrations) [1]: 1.687 mgDPPH/mg
DPPH free radical scavenging ability V [1]: 0.856 mmolDPPH/mmol
DPPH free radical scavenging ability, comparison between samples [1]: one-eighth of Compound 3
DPPH free radical scavenging ability E [1, 3]: 1.650 mgDPPH/mg
DPPH free radical scavenging ability E [1, 4]: 1.481 mgDPPH/mg
DPPH free radical scavenging ability E [1, 5]: 1.252 mgDPPH/mg
DPPH free radical scavenging ability E [1, 6]: 2.262 mgDPPH/mg
DPPH free radical scavenging ability E [1, 7]: 1.792 mgDPPH/mg
DPPH free radical scavenging ability, comparison with Compound 3 ([1]; at 150 min): equivalent with Compound 3

Compound: Cc1cc(=O)n(-c2ccccc2C#N)[nH]1 [Compound 3, 1-(2-cyanophenyl)-3-methylpyrazol-5-one]
DPPH free radical scavenged by one molecular of compound [1]: 1.942 molecular of DPPH free radical
DPPH free radical scavenging ability E, one value per sample (mean of the five concentrations) [1]: 3.510 mgDPPH/mg
DPPH free radical scavenging ability V [1]: 1.942 mmolDPPH/mmol
DPPH free radical scavenging ability, comparison between samples [1]: the largest; also recorded: slightly stronger than Edaravone
DPPH free radical scavenging ability E [1, 3]: 3.067 mgDPPH/mg
DPPH free radical scavenging ability E [1, 4]: 3.215 mgDPPH/mg
DPPH free radical scavenging ability E [1, 5]: 2.770 mgDPPH/mg
DPPH free radical scavenging ability E [1, 6]: 4.032 mgDPPH/mg
DPPH free radical scavenging ability E [1, 7]: 4.464 mgDPPH/mg

Compound: COCCOC(=O)C1=C(C)NC(C)=C(C(=O)OC(C)C)C1c1cccc([N+](=O)[O-])c1 (centres unmarked) [Nimodipine, nimodipine, reference compound]
Variation value of water content in brain (%) ([2]; Nimodipine 0.4 mg/kg, n=7): 1.6 ± 0.59 %
brain tissue MDA content ([2]; Nimodipine 0.4 mg/kg, n=7): 7.6 ± 1.28 nmol/mgprot
brain tissue SOD activity ([2]; Nimodipine 0.4 mg/kg, n=7): 114.8 ± 16.4 U/mgprot
Scores of neurological defect symptoms ([2]; Table 4 series, Nimodipine 0.4 mg/kg, three administrations, 48 hours after cerebral ischemia, n=10): 1.2 ± 0.41
Cerebral infarction area (%) [2, 12]: 6.7 ± 6.30^#& %
Cerebral infarction area (%) (table title: brain injury) [2, 12]: 12.8 ± 12.09^#& %
Scores of neurological defect symptoms ([2]; Table 7 series, Nimodipine 0.4 mg/kg, n=7): 1.3 ± 0.86
